Assay results from ChEMBL document CHEMBL1201862, “PubChem BioAssay data set” (2004).
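Protocol summary: plate cells (96-well), add compound at 5 concentrations, incubate 48 h, interpolate endpoints linearly. GI50 marks 50% less growth.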 Active and inactive are the calls of the source. Cut-off read from the data, not from the text of the source: active = GI50 up to about 1.1 µM and inactive = higher.

What was measured:
Assay in all cases: NCI tumour cell line growth inhibition, 48 h
DU-145 = system: DU-145
MDA-MB-231 = system: MDA-MB-231
MDA-MB-435 = system: MDA-MB-435
MDA-N = system: MDA-N
T47D = system: T47D
RXF 631 = system: RXF 631
BT-549 = system: BT-549
Hs-578T = system: Hs-578T

Measured: GI50

CC(=O)NC(CCCCNC(=O)OC(C)(C)C)C(=O)O (configuration not stated)
inactive: DU-145 > 100 µM | MDA-MB-231 > 100 µM | MDA-MB-435 > 100 µM | MDA-N > 100 µM | T47D > 100 µM

Clc1ccc(C2SCc3nc4ccccc4n32)cc1 (configuration not stated)
inactive: RXF 631 29.2 µM

CSC1=C(SC)C(=O)c2cn(C)c(=O)cc2C1=O
inactive: BT-549 2.14 µM | DU-145 8.47 µM | Hs-578T 7.67 µM | MDA-MB-231 1.87 µM | MDA-MB-435 1.79 µM | MDA-N 1.64 µM | T47D 2.05 µM

Cc1cn(C2CC(O)C(Cn3cc(Cn4nc(Br)c(=O)[nH]c4=O)nn3)O2)c(=O)[nH]c1=O (configuration not stated)
inactive: BT-549 > 100 µM | DU-145 > 100 µM | Hs-578T > 100 µM | MDA-MB-231 > 100 µM | MDA-MB-435 > 100 µM | MDA-N > 100 µM | T47D > 100 µM

CSCCC(NOC(=O)Cc1ccccc1)P(=O)(O)c1ccccc1 (configuration not stated)
inactive: DU-145 > 100 µM | Hs-578T > 100 µM | MDA-MB-231 > 100 µM | MDA-MB-435 > 100 µM | MDA-N > 100 µM | T47D > 100 µM

C[N+](C)(CCO)CCN1c2ccccc2Sc2ccccc21
inactive: DU-145 > 10 µM | Hs-578T > 10 µM | MDA-MB-231 > 10 µM | MDA-MB-435 > 10 µM | MDA-N > 10 µM | T47D > 10 µM
